Experiments:
Daudi cell line = assay: Cell proliferation / cytotoxicity, CCK-8, chlorotoxin (TM-601) with or without doxorubicin; type: cell-based; conditions: in combination with doxorubicin; FIG. 4
Protocol: (§1) A tissue culture method was optimized to test the effects of chlorotoxin (TM-601) in the presence or absence of doxorubicin on Raji (FIG. 3) and Daudi (FIG. 4) cell lines. Cells were plated on 96-well microtiter tissue culture plates at a density of approximately 1000-2000 cells per well, depending on the specific cell line. Cells were allowed to adhere twenty-four hours in a 37° C., humidified cell culture incubator supplied with five percent carbon dioxide. In order to achieve a dose-response curve for each drug in each cell line, cells were treated with decreasing concentrations doxorubicin for two to five days. Following treatment, the cytotoxic effect of doxorubicin was quantified using the Cell Counting Kit-8 (CCK-8) (Dojindo Inc.) according to the manufacturer's instructions. In brief, following the treatment period with doxorubicin, cells were incubated with CCK-8 reagent and incubated at 37° C. for one to four hours, depending on the specific cell type. After incubation, plates were read on a microplate reader at a wavelength of 490 nm.

Raji cell line = assay: as above; type: cell-based; conditions: in combination with doxorubicin; FIG. 3
Protocol: as §1

[1] = system: myeloid and lymphoid cancer cells; assay: Binding of chlorotoxin and binding-domain peptides to lymphoid cancer cells (FACS, streptavidin-fluorescein); conditions: general statement; FACS on Raji, Daudi, Molt-4 cells (FIG. 1, 2)
Protocol: Raji (Epstein et al. (1966) J. Natl. Cancer Inst. 37, 547-559) and Daudi (Klein et al. (1968) Cancer Res. 28 1300-1310) cells were used either unfixed or fixed with one percent glutaraldehyde. The Raji cell line (ATCC CCL-86) is a B lymphocyte cell line derived from a Burkitt's lymphoma of a person. The Daudi cell line (ATCC CCL-213) is a B lymphoblast cell line derived from person. Cells were incubated with chlorotoxin or the designated binding domain peptide (SEQ ID NO: 8 or 10), washed then incubated with streptavidin-fluorescein (strp-FL). After another wash, cells were analyzed using a FACS analyzer and the percent of positive staining cells determined (FIG. 1). Controls included untreated cells, cells incubated with streptavidin-fluorescein alone and cells incubated with negative peptide.
Molt-4 cells (Minowada et al. (1972) J. Natl. Cancer Inst. 49, 891-895) were used either unfixed or fixed with one percent glutaraldehyde. The Molt-4 cell line is a T lymphoblast cell line derived from a patient in relapse. Cells were incubated with chlorotoxin or the designated binding domain peptide (SEQ ID NO: 8 or 10), washed then incubated with streptavidin-fluorescein (strp-FL). After another wash, cells were analyzed using a FACS analyzer and the percent of positive staining cells determined (FIG. 2). […]

## chlorotoxin
Daudi cell line
  effect on Daudi cell proliferation: close-dependent synergistic effects
Raji cell line
  effect on Raji cell proliferation: close-dependent synergistic effects
[1]
  binding to myeloid and lymphoid cancer cells: specifically and selectively bind
